Assay results published in patent US11459339B2, “Biaryl derivative, preparation method thereof and pharmaceutical application thereof” (Abbisko Therapeutics Co., Ltd., priority 2018, dated 2022).

Legend:
[1] = biological target: interaction between PD-1 and PD-L1 (Homo sapiens (Human), UniProt Q9NZQ7); assay: PD1-PDL1 HTRF binding activity test (Cisbio PD-1/PD-L1 binding assay kit); conditions: read-out: PD1-PDL1 HTRF Binding Activity IC50
Method: A. PD1-PDL1 HTRF Binding Activity Test
The effect of compounds and positive compounds of the examples of the present invention on the interaction between PD-1 and PD-L1 was determined by the PD-1/PD-L1 binding assay kit from Cisbio (#64ICP01PEG or 64ICP01PEH). The detailed experimental process was as follows:
1. Pre-diluted compound solution, 4 μL of Tag1-PD-L1 and 4 μL of Tag2-PD1 were added to each well of a 384-well plate;
3. After incubated for 2 hrs at room temperature or overnight at 4° C., plates were read on Envision of Pelkin Elmer; and readings at 665 nm and 620 nm were recorded, and the ratio of the two readings was taken as a reading for each well;
4. The reading of each well after compound treatment was compared with the reading of DMSO treated wells to obtain the percent inhibition of the compound; and
5. IC50 values of compounds and positive compounds of the examples of the present invention were determined by non-linear regression analysis of percent inhibition at different compound concentrations.

[2] = biological target: interaction between PD-1 and PD-L1 expressed on cell surfaces (Homo sapiens (Human), UniProt Q9NZQ7); assay: Jurkat reporter gene cellular assay (Jurkat/NF-κB-luc/PD1 cells cocultured with Raji-PD-L1 cells, OKT-3 stimulation); type: cell-based; conditions: NF-κB-luc reporter activation fold, 6 hrs; read-out: Cell Activity EC50
Chain of interaction between PD-1 and PD-L1 expressed on cell surfaces (Q9NZQ7 19-290): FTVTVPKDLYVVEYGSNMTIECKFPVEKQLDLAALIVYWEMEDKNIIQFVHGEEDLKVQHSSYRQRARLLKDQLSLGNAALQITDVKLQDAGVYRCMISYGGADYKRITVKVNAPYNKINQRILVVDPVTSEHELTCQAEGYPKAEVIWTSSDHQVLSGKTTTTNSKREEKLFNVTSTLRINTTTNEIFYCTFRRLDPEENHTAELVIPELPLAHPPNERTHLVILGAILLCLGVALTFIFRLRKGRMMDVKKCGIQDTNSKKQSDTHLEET
Method: B. Jurkat Reporter Gene Cellular Assay
The effect of compounds of the examples of the present invention and positive compounds on the interaction between PD-1 and PD-L1 expressed on cell surfaces, and the related influence on T cell functions, were determined by a Jurkat reporter gene cellular assay.
Briefly, the reporter gene plasmid of NF-κB-luc and the plasmid of human PD-1 were transfected into Jurkat cells to establish a stably transfected cell line capable of stably expressing both PD-1 and NF-κB-Luc reporter genes; the expression level of PD-1 on the cell surface was confirmed by flow cytometry: and the expression of the reporter gene was confirmed via the response of the reporter gene stimulated by OKT-3 and Raiji cells.
In addition, the plasmid of human PD-L1 was transfected into Raji cells to obtain a cell line capable of stably expressing PD-L1. Jurkat/NF-κB-luc/PD1 cells and Raji-PD-L1 cells were then cocultured and stimulated with OKT-3. On this basis, the compounds were added, and the enhancement of the signal pathway of T cell activation by the inhibitory effect of the compounds on the interaction between PD-1 and PD-L1 was evaluated by readings of reporter gene responses. The specific experimental process was as follows:
2. 20 μL of Raji-PD-L1 cell suspension was added to each well with 5*10^4 cells for each well, and was incubated in an incubator for 20 min;
3. 20 μL of Jurkat/NF-κb-luc/PD-1 cell suspension was added to each well with 5*10^4 cells for each well, and well mixed, and 6 hrs later, Bright-glo (Promega, E2620) was applied and plates were read on Envision;
4. the reading of each well treated with the compound was compared with the reading of each well treated with DMSO to obtain the activation fold of the compound; and
5. EC50 values of compounds and positive compounds of the examples of the present invention were determined by non-linear regression analysis of activation folds at different compound concentrations.

Chain of interaction between PD-1 and PD-L1 (Q9NZQ7 19-238): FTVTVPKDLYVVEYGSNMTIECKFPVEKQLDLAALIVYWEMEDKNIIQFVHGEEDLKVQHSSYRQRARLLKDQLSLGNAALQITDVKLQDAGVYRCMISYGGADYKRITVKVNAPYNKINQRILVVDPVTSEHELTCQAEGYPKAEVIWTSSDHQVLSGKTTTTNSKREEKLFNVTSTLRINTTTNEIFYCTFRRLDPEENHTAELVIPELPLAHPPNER

SMILES | IC50 [1] | EC50 [2]
COC(=O)CNCc1cnc(C(=O)Nc2cccc(-c3cccc(NC(=O)c4cc(C)c(CNCC(=O)OC)cn4)c3C)c2C)cc1C [Example 24, dimethyl 2,2′-((((((2,2′-dimethyl-[1,1′-biphenyl]-3,3′-diyl)bis(azanediyl))bis(carbonyl))bis(4-methylpyridine-6,3-diyl))bis (methylene))bis(azanediyl))diacetate] | 3.2 nM | 1050 nM
Cc1cc(C(=O)Nc2cccc(-c3cccc(NC(=O)c4cc(C)c(CNCC(=O)O)cn4)c3C)c2C)ncc1CNCC(=O)O [Example 25] | 0.37 nM | 124 nM
COC(=O)[C@H]1CCCCN1Cc1cnc(C(=O)Nc2cccc(-c3cccc(NC(=O)c4cc(C)c(CN5CCCC[C@@H]5C(=O)OC)cn4)c3C)c2C)cc1C [Example 28, dimethyl 1,1′-(((((2,2′-dimethyl-[1,1′-biphenyl]-3,3′-diyl)bis (azanediyl))bis(carbonyl))bis (4-methylpyridine-6,3-diyl))bis(methylene))(2R,2′R)-bis (piperidine-2-carboxylate)] | 9.55 nM | > 10000 nM
Cc1cc(C(=O)Nc2cccc(-c3cccc(NC(=O)c4cc(C)c(CN5CCCC[C@@H]5C(=O)O)cn4)c3C)c2C)ncc1CN1CCCC[C@@H]1C(=O)O [Example 29, (2R,2′R)-1,1′-(((((2,2′-dimethyl-[1,1′-biphenyl]-3,3′-diyl)bis (azanediyl))bis(carbonyl))bis (4-methylpyridine-6,3-diyl))bis(methylene))bis(piperidine-2-carboxylic acid)] | 0.36 nM | 1460 nM
Cc1cc(C(=O)Nc2cccc(-c3cccc(NC(=O)c4cc(C)c(CN[C@H](CCO)C(=O)O)cn4)c3C)c2C)ncc1CN[C@H](CCO)C(=O)O [Example 30, (2R,2′R)-2,2′-((((((2,2′-dimethyl-[1,1′-biphenyl]-3,3′-diyl)bis(azanediyl))bis(carbonyl))bis(4-methylpyridine-6,3-diyl))bis(methylene))bis(azanediyl)) bis(4-hydroxybutanoic acid)] | 1.24 nM | 448 nM
COc1cc(C(=O)Nc2cccc(-c3cccc(NC(=O)c4cc(OC)c(CN5CCOCC5)cn4)c3C)c2C)ncc1CN1CCOCC1 [Example 31, N,N′-(2,2′-dimethyl-[1,1′-biphenyl]-3,3′-diyl)bis(4-methoxy-5-(morpholinomethyl)picolinamide)] | 1 nM | 2080 nM
CNCc1cnc(C(=O)Nc2cccc(-c3cccc(NC(=O)c4cc(OC)c(CNC)cn4)c3C)c2C)cc1OC [Example 32, N,N'-(2,2′-dimethyl-[1,1′-biphenyl]-3,3′-diyl)bis(4-methoxy-5-((methylamino)methyl)picolinamide)] | 0.27 nM | 53 nM
COc1cc(C(=O)Nc2cccc(-c3cccc(NC(=O)c4cc(OC)c(CNC[C@H](O)CO)cn4)c3C)c2C)ncc1CNC[C@H](O)CO [Example 33, N,N'-(2,2′-dimethyl-[1,1′-biphenyl]-3,3′-diyl)(5((((S)-2,3-dihydroxypropyl)amino)methyl)-4-methoxypicolinamide)] | 0.65 nM | 109 nM
COCCNCc1cnc(C(=O)Nc2cccc(-c3cccc(NC(=O)c4cc(OC)c(CNCCOC)cn4)c3C)c2C)cc1OC [Example 34, N,N'-(2,2′-dimethyl-[1,1′-biphenyl]-3,3′-diyl)bis(4-methoxy-5-(((2-methoxyethyl)amino)methyl)picolinamide)] | 0.21 nM | 111 nM
COc1cc(C(=O)Nc2cccc(-c3cccc(NC(=O)c4cc(OC)c(CNCCOC(F)F)cn4)c3C)c2C)ncc1CNCCOC(F)F [Example 35, N,N'-(2,2′-dimethyl-[1,1′-biphenyl]-3,3′-diyl)bis(5-(((2-(difluoromethoxy)ethyl)amino)methyl)-4-methoxypicolinamide)] | 1.11 nM | 257 nM
COCCN(C)Cc1cnc(C(=O)Nc2cccc(-c3cccc(NC(=O)c4cc(OC)c(CN(C)CCOC)cn4)c3C)c2C)cc1OC [Example 36, N,N'-(2,2′-dimethyl-[1,1′-biphenyl]-3,3′-diyl)bis(4-methoxy-5-(((2-methoxyethyl)(methyl)amino)methyl)picolinamide)] | 0.74 nM | 456 nM
COc1cc(C(=O)Nc2cccc(-c3cccc(NC(=O)c4cc(OC)c(CN(C)CCO)cn4)c3C)c2C)ncc1CN(C)CCO [Example 37, N,N'-(2,2′-dimethyl-[1,1′-biphenyl]-3,3′-diyl)bis(5-(((2-hydroxyethyl) (methyl)amino)methyl)-4-methoxypicolinamide)] | 0.04 nM | 118 nM
COc1cc(C(=O)Nc2cccc(-c3cccc(NC(=O)c4cc(OC)c(CNCCOC(C)=O)cn4)c3C)c2C)ncc1CNCCOC(C)=O [Example 38, ((((((2,2′-dimethyl-[1,1′-biphenyl]-3,3′-diyl)bis(azanediyl))bis (carbonyl))bis(4-methoxypyridine-6,3-diyl))bis(methylene))bis (azanediyl))bis(ethane-2,1-diyl) diacetate] | 0.83 nM | 7000 nM
COc1cc(C(=O)Nc2cccc(-c3cccc(NC(=O)c4cc(OC)c(CNCCNC(C)=O)cn4)c3C)c2C)ncc1CNCCNC(C)=O [Example 39, N,N′-(2,2′-dimethyl-[1,1′-biphenyl]-3,3′-diyl)bis(5-(((2-acetamidoethyl)amino)methyl)-4-methoxypicolinamide)] | 0.86 nM | 225 nM
COc1cc(C(=O)Nc2cccc(-c3cccc(NC(=O)c4cc(OC)c(CNCC(C)(C)O)cn4)c3C)c2C)ncc1CNCC(C)(C)O [Example 40, N,N'-(2,2′-dimethyl-[1,1′-biphenyl]-3,3′-diyl)bis(5-(((2-hydroxy-2-methylpropyl)amino)methyl)-4-methoxypicolinamide)] | 0.29 nM | 172 nM
COc1cc(C(=O)Nc2cccc(-c3cccc(NC(=O)c4cc(OC)c(CNCC5(O)CC5)cn4)c3C)c2C)ncc1CNCC1(O)CC1 [Example 41, N,N'-(2,2′-dimethyl-[1,1′-biphenyl]-3,3′-diyl)bis(5-((((1-hydroxycyclopropyl)methyl)amino)methyl)-4-methoxypicolinamide)] | 0.032 nM | 74 nM
COc1cc(C(=O)Nc2cccc(-c3cccc(NC(=O)c4cc(OC)c(CN[C@H](C)CO)cn4)c3C)c2C)ncc1CN[C@H](C)CO [Example 42, N,N'-(2,2′-dimethyl-[1,1′-biphenyl]-3,3′-diyl)bis(5-((((R)-1-hydroxypropan-2-yl)amino)methyl)-4-methoxypicolinamide)] | 0.28 nM | 60 nM
COc1cc(C(=O)Nc2cccc(-c3cccc(NC(=O)c4cc(OC)c(CN[C@@H](C)CO)cn4)c3C)c2C)ncc1CN[C@@H](C)CO [Example 43, N,N'-(2,2′-dimethyl-[1,1′-biphenyl]-3,3′-diyl)bis(5-((((S)-1-hydroxypropan-2-yl)amino)methyl)-4-methoxypicolinamide)] | 0.29 nM | 11 nM
COc1cc(C(=O)Nc2cccc(-c3cccc(NC(=O)c4cc(OC)c(CN[C@H]5CCC[C@@H]5O)cn4)c3C)c2C)ncc1CN[C@H]1CCC[C@@H]1O [Example 44, N,N'-(2,2′-dimethyl-[1,1′-biphenyl]-3,3′-diyl)bis(5-((((1S,2S)-2-hydroxycyclopentyl)amino)methyl)-4-methoxypicolinamide)] | 0.24 nM | 55 nM
